We go through 4 molecules from patent publication US5972670A, “Blue copper oxidase mutants with enhanced activity” (priority 1998, dated 1999).

Read-outs that look alike come from different tables or passages of the source.

For series [1], the target named is T1, Rhizoctonia solani laccase isozyme 4 (rsl4; RsL), wild type (pJiWa59), SEQ ID NO:25 (Thanatephorus cucumeris, UniProt Q02081).
T1 sequence (Q02081 21-531): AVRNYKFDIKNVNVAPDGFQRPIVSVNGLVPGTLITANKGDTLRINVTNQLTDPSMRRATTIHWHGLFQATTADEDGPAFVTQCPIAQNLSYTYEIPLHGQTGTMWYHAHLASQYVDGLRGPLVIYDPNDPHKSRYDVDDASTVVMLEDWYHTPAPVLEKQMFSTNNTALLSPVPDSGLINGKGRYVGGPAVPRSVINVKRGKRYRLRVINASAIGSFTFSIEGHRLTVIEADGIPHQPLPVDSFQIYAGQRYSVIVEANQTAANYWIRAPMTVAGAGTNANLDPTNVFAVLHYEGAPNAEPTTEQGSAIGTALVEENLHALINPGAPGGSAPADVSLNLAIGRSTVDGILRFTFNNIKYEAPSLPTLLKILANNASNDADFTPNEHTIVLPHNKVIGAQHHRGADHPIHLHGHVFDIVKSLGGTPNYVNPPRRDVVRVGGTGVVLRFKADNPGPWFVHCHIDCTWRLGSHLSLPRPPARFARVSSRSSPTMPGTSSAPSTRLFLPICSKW
The series is described as follows: Syringaldazine and ABTS oxidase kinetics (Km, kcat), RsL wt. The series is classed as biochemical. The conditions noted are these: 8 mM MES-NaOH buffer, pH 5.3, spectroscopic. As to the method:
(§1) The molecular weights of the mature laccases are used to calculate both extinction coefficients and turnover numbers. The molecular weights are determined from the deduced amino acid sequences of the DNA sequences (FIG. 6: SEQ ID NOS:24 and 25, and FIG. 7: SEQ ID NOS:26 and 27). Protein concentrations (expressed as subunits) are measured based on the extinction coefficients determined by quantitative amino acid analysis.
(§2) Km and kcat are obtained from the initial rate (v), enzyme concentration (E), and substrate concentration (S) in accordance to the equation v=kcat ES/(Km +S) by non-linear regression fitting using the Prizm program (GraphPad, San Diego, Calif.). […] The O2 concentration in air-saturated buffer solution is assumed as the same in plain water (0.28 mM).

For series [2], the target named is Myceliophthora thermophila laccase (MtL) mutant "M" L513F (pRaMB17M) (Thermothelomyces thermophilus, UniProt G2QG31, form not given/L556F). The series is classed as biochemical. Here is the method: as §1, §2
Series [3] has as its target Myceliophthora thermophila laccase (MtL) mutant "T" V509L/S510E/G511A (pBANe22T) (Thermothelomyces thermophilus, UniProt G2QG31, G554A/S553E/V552L). It is filed as biochemical. As to the method: as §1, §2
The target of series [4] is Rhizoctonia solani laccase isozyme 4 (RsL) mutant "M" L470F (pJiWa86) (Thanatephorus cucumeris, UniProt Q02081). It is filed as biochemical. Here is the method:
as §1, §2

For series [5], the target named is Rhizoctonia solani laccase isozyme 4 (RsL) mutant "T" L466V/E467S/A468G (pJiWa85) (Thanatephorus cucumeris, UniProt Q02081). The series is classed as biochemical. As to the method:
as §1, §2

Series [6] addresses T2, Myceliophthora thermophila laccase (lcc-1; MtL), wild type (pRaMB17), SEQ ID NO:27 (Thermothelomyces thermophilus, UniProt G2QG31).
T2 sequence (G2QG31 with tags, fused parts or gaps INS108NSII/R109G/T291C/S323N/P398A/P430A/T522S/A533S/H588R): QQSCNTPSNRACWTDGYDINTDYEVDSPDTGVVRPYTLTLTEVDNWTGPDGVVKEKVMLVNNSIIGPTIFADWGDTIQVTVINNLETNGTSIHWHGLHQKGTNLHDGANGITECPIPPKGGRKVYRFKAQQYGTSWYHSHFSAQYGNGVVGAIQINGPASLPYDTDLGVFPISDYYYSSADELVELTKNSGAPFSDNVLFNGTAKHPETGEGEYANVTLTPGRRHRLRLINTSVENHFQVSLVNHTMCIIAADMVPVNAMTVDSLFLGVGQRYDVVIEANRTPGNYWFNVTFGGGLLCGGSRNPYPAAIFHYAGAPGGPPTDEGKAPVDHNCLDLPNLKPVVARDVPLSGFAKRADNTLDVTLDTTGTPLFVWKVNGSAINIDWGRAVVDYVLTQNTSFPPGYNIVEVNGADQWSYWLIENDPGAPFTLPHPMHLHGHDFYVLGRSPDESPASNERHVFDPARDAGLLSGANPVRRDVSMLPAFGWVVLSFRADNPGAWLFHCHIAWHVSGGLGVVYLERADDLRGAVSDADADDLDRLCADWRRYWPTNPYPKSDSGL
The series is described as follows: Syringaldazine and ABTS oxidase kinetics (Km, kcat), MtL wt. The conditions noted are these: 8 mM MES-NaOH buffer, pH 5.3, spectroscopic. Here is the method: as §1, §2

Substrate in series [7]: CCn1c(=NN=c2sc3cc(S(=O)(=O)O)ccc3n2CC)sc2cc(S(=O)(=O)O)ccc21
The series is described as follows: purified protein, by the assay type. The conditions noted are these: 8 mM MES-NaOH buffer, pH 5.3, spectroscopic.

Substrate in series [8]: COc1cc(C=NN=Cc2cc(OC)c(O)c(OC)c2)cc(OC)c1O
The series is described as follows: purified protein, by the assay type. The note with it: 8 mM MES-NaOH buffer, pH 5.3, spectroscopic.

Setting [9] is: 8 mM MES-NaOH buffer, pH 5.3, spectroscopic.
Where [10] appears, read: read-out: Km (ABTS), 8 mM MES-NaOH buffer, pH 5.3, spectroscopic.
Where [11] appears, read: read-out: Km (SGZ), 8 mM MES-NaOH buffer, pH 5.3, spectroscopic.

On to `CCn1c(=NN=c2sc3cc(S(=O)(=O)O)ccc3n2CC)sc2cc(S(=O)(=O)O)ccc21` [ABTS, 2,2'-azinobis(3-ethylbenzthiazoline-6-sulfonic acid)], for which the “kcat (ABTS)” value turned out to be 41.67 ± 1.67 s⁻¹ in series [1]; 30 ± 1.67 s⁻¹ in series [2] (setting [9]); 8.83 ± 0.333 s⁻¹ in series [3] (setting [9]); 12.7 ± 0.5 s⁻¹ in series [4] (setting [9]); 0.333 ± 0.017 s⁻¹ in series [5] (setting [9]); 63.33 ± 5 s⁻¹ in series [6]. Further, the Km in series [2] (setting [10]) is 43 ± 3 µM; in series [4] (setting [10]), 125 ± 13 µM; in series [5] (setting [10]), 60 ± 4 µM.
In the case of `COc1cc(C=NN=Cc2cc(OC)c(O)c(OC)c2)cc(OC)c1O` [SGZ, syringaldazine], the “kcat (SGZ)” value in series [1] is 9.17 ± 0.667 s⁻¹; in series [2] (setting [9]) it was 55 ± 1.67 s⁻¹; in series [3] (setting [9]), 6 ± 0.333 s⁻¹; in series [4] (setting [9]) it was 4.25 ± 0.183 s⁻¹; in series [5] (setting [9]) it was 0.0183 ± 0.0017 s⁻¹. The Michaelis-Menten constant (Km) in series [2] (setting [11]) came to 1.8 ± 0.2 µM; in series [3] (setting [11]), 0.9 ± 0.2 µM; in series [4] (setting [11]), 35 ± 4 µM; in series [5] (setting [11]), 3.9 ± 0.3 µM.

B1: Myceliophthora thermophila laccase (lcc-1; MtL), wild type (pRaMB17), SEQ ID NO:27 (Thermothelomyces thermophilus ATCC 42464) (protein)
chain: T2 sequence (G2QG31 with tags, fused parts or gaps INS108NSII/R109G/T291C/S323N/P398A/P430A/T522S/A533S/H588R)
B1: the results for the Km in series [7] (other: MtL wt) and in series [8] (other: MtL wt) were 110 ± 20 µM and 1.4 ± 0.2 µM, respectively.

B2: Rhizoctonia solani laccase isozyme 4 (rsl4; RsL), wild type (pJiWa59), SEQ ID NO:25 (Thanatephorus cucumeris) (protein)
chain: T1 sequence (Q02081 21-531)
As for B2, the Michaelis constant (Km) in series [7] (other: RsL wt) is 52 ± 6 µM; in series [8] (other: RsL wt), 28 ± 4 µM.
